Experimental data published in patent publication US10428336B2, “Method for modulating plant growth” (The Australian National University, priority 2013, dated 2019).
Square brackets hold non-standard residues; d marks the D form. Ends that are not written are not given here. Hyp = O=C(O)[C@@H]1C[C@@H](O)CN1

Columns and labels:
[1] = system: M. truncatula roots; assay: Exogenous application of synthetic CEP peptides to M. truncatula roots; type: in vivo, Medicago truncatula; settings: synthetic ligand applied to roots
Text: The CEP peptides were synthesized at the Biomolecular Resource Facility, The Australian National University. The 15 amino acid (aa) peptides corresponding to the conserved domains of MtCEP1 (AFQHypTTPGNSHypGVGH and EFQKTNPGHSHypGVGH—SEQ ID Nos: 451 and 452 respectively—where Hyp indicates hydroxy proline residue) and M. hapla MhCEP2 (AFRHypTAPGHSHypGVGH; SEQ ID NO: 453) were synthesized and validated as previously described in Djordjevic M A, et al. (2011), “Border sequences of Medicago truncatula CLE36 are specifically cleaved by endoproteases common to the extracellular fluids of Medicago and soybean”, J Exp Bot 62(13):4649-4659. The root length of wild-type plants was measured four days after transfer to Fåhraeus-medium containing the synthetic peptide. For the hormone assays, A17 plants were grown on Fåhraeus-medium for 10 days before transferring to Fåhraeus-medium containing 10^−6 M of the respective phytohormones; 1-aminocyclopropane-1-carboxylic acid (ACC), 6-benzylaminopurine (BAP), gibberellic acid (GA), synthetic analog of strigolactone (GR24), methyl jasmonate (MeJA) and 1-naphthaleneacetic acid (NAA).

[2] = system: Arabidopsis root growth; settings: synthetic 15 amino acid peptide at 10^−6 M to 10^−7 M; cited from earlier work
[3] = system: Brachypodium distachyon BD21; assay: Shoot growth of B. distachyon in layered agar medium containing CEP peptide; type: in vivo; settings: 16 day old plants, 1 μM peptide in medium with barrier; for shoot length: vs no peptide controls, ANOVA
Protocol: Brachypodium. distachyon BD21 seeds were sterilised by washing in 80% ethanol for 1 minute, followed by shaking in 50 ml of 10% stock sodium hypochlorite (Northfork) with 200 μl of Triton X-100 (per 50 mL) for 5 minutes, before rinsing three times in sterile water. Seeds were then stratified for 3 days in the dark at 4° C. to induce synchronized germination. Plants were grown at 21° C. on a 16/8 h light/dark cycle in a constant environment walk-in cabinet (100 μmol/m^−2/s^−2).
Murashige and Skoog basal medium (Sigma-Aldrich Corporation, St. Louis, USA) was prepared (2.2 g/L, sterile RO water), 10% MES buffer added, and the pH adjusted to 5.7 using 1 M KOH. Falcon tubes (BD Biosciences, Australia; 50 mL max volume) containing two agar layers were prepared using the following ranges of agar concentrations: 0.2%, 0.4%, 0.5%, 0.8%, 1.0% for soft top layer and 0.5%, 1.0%, 1.5%, 2.0%, 2.5%, 3.0% and 4.0% for hard bottom layer. Type-M agar (Sigma-Aldrich Corporation) was used in all experiments. The hard layers contained 15 mL of agar and the (upper) soft layers contained 10 mL of agar. Seeds were placed one per falcon tube for root assays, with embryos facing away from the media.
Synthetic CEP peptides corresponding to those predicted to be the final products of the BdCEP1 and AtCEP5 coding sequences (SEQ ID NOs: 483 and 11, respectively) were prepared (but the BdCEP1 peptide was synthesized missing the first two amino acids, and designated as BdCEP3a in FIGS. 16 and 17) and added to molten media (60° C.) to a final concentration of 1μM.
Tubes were set up with optimal agar concentrations of 0.5% for soft top layer and 2.5% for hard bottom layer which induced a strong mechanical response in untreated plants. A layered agar system with no peptide addition and an un-layered system (0.5%, uniform agar concentration; 25 ml) with no peptide addition were used as controls. Each tube was fitted into an 8 slot Falcon tube rack which was covered in aluminum foil to minimize light exposure to the root systems. This system allowed tubes to be periodically removed for easy visual inspection. The upper level of the soft layer was below the level of the rack.
Shoot length was measured at the end of the growth period. Data obtained from analyzing root system measurements were statistically analyzed.

[4] = system: Arabidopsis thaliana (accession Col-0); assay: Root growth assay of Col-0 plants on standard medium supplemented with synthetic CEP peptides; type: in vivo; settings: 12-day-old Col-0 plants, peptide at 10−6 M (1 μM), compared to untreated plants
Protocol: FIG. 8—CEP synthetic peptides decrease primary root length and lateral root density. (A) CEP peptides used in growth assays. (hyP) indicates hydroxyproline residues. (B) Alignment of CEP3, CEP5 and CEP9.1 peptide domains. (C) Primary root length and lateral root density of 12-day-old Col-0 plants grown on standard medium supplemented with 1 μM of the specified peptide. n≥7 plants. (D) Differential biological activity of CEP3, CEP5 and CEP9 peptide variants. The histogram indicates the lowest concentration at which a peptide elicited a significant reduction in primary root length compared to untreated plants (P<0.05). Col-0 plants were grown vertically for 12 days on standard medium supplemented with peptide concentrations ranging from 10^−6 M to 10^−12 M. n=7-16 plants. Error bars show standard error. *P≤0.05; **P≤0.01; *** P≤0.001 (two-sample t-test, Genstat).
For root assays, seeds of Arabidopsis thaliana (accession Col-0) were surface sterilized with 6.25% bleach, stratified for 3-4 days and sown onto plates. […] Plates were imaged using an Epson scanner and images were analysed using the SmartRoot plugin (Lobet et al., 2011) in ImageJ. Statistically significant differences were determined using a two-sample t-test (Genstat 14th edition) where appropriate. […]

Substance | root phenotype (periodic bumps resembling galls) [1] | number of leaves per plant on average [3] [leaves] | shoot length [3] | also measured
AFQHypTTPGNSHypGVGH and EFQKTNPGHSHypGVGH [MtCEP1] | periodic bumps induced |  |  | 
AFR[Hyp]TAPGHS[Hyp]GVGH [MhCEP2] | periodic bumps induced |  |  | 
CEP1: synthetic 15 amino acid CEP1 peptide of Ohyama et al., 2008 (DFRPTNPGNSPGVGH; ends and bridges not checked; listed as Arabidopsis thaliana) |  |  |  | root growth [2]: inhibited root growth
DFRPTTPGHSPGIGH [AtCEP5] |  | 4.9 | significantly longer shoots | 
DFVPTSPGNSPGVGH [CEP9.1, synthetic non-hydroxylated CEP9.1 peptide domain] |  |  |  | lateral root density [4]: reduced lateral root density; primary root length [4]: much weaker effect on primary root length
DSTTPGHSPSIGH (also: hydroxyproline predicted at Pro5 and Pro9, not given here for synthetic peptide) [BdCEP1, BdCEP1 peptide synthesized missing the first two amino acids, designated BdCEP3a] |  | 4.7 | significantly longer shoots | 
